Where two headings read alike, the source gives them in different places.
Columns and labels:
Format in all cases: in vivo
Musca domestics = assay: Experimental Example 3: filter paper test with sucrose bait, death rate of Musca domestics; details: read-out: death rate of the pest
Method: Preparations of the present compounds (1), (2), (3), (4), (5), (6), (8), (9), (10), (11), (12), (13), (14), (15), (16), (17), (18), (19), (21), (22), (23), (24), (25), (26), (27), (31), (34), (35), (36), (37), (38), (39), (40), (42), (47), (50), (52), (54), (66), (67) and (68) obtained according to Formulation Example 5 were diluted with water so that the active ingredient concentration was 500 ppm to prepare experimental pesticidal solutions.
(§1) A filter paper having a diameter of 5.5 cm was spread on the bottom of a polyethylene cup having a diameter of 5.5 cm and 0.7 ml of the experimental pesticidal solution was added dropwise onto the filter paper. As a bait 30 mg of sucrose was uniformly placed on the filter paper. Into the polyethylene cup, 10 female Musca domestics imagoes were released and the cup was sealed with a lid. After 24 hours, the number of surviving Musca domestics was examined and the death rate of the pest was calculated.

Blattalla germanica = assay: Experimental Example 4: filter paper test with sucrose bait, death rate of Blattalla germanica; details: 144 h; 500 ppm active ingredient, 0.7 ml on filter paper; two male imagoes; after 6 days
Method: Preparations of the present compounds (2), (4), (5), (6), (8), (9), (11), (12), (13), (15), (17), (18), (19), (21), (24), (25), (26), (27), (35), (36), (37), (38), (40), (41), (42), (47), (50), (52), (54), (62), (64), (65), (66) and (68) obtained according to Formulation Example 5 were diluted with water so that the active ingredient concentration was 500 ppm to prepare experimental pesticidal solutions.
as §1, with “two male Blattalla gexmanica images” for “10 female Musca domestics imagoes”, “6 days,” for “24 hours,”, “Blattalla germanica” for “Musca domestics”

Culex pipiens pallens = assay: Experimental Example 5: larvae in treated water, death rate of Culex pipiens pallens; details: 24 h, read-out: death rate of the pest
Method: Preparations of the present compounds (1), (2), (4), (5), (6), (8), (9), (11), (12), (13), (14), (15), (16), (17), (18), (19), (21), (22), (23), (24), (25), (26), (27), (31), (33), (34), (35), (36), (37), (38), (39), (40), (42), (43), (47), (48), (50), (52), (53), (54), (62), (64), (65), (66), (67), (68) and (70) obtained according to Formulation Example 5 were diluted with water so that the active ingredient concentration was 500 ppm to prepare experimental pesticidal solutions.
0.7 ml of the experimental pesticidal solution was added to 100 mL of ion-exchanged water (active ingredient concentration: 3.5 ppm). Into the solution, 20 last-instar larvae of Culex pipiens pallens were released. After one day, the surviving number was examined and the death rate of the pest was calculated.

[1] = 500 ppm active ingredient, 0.7 ml on filter paper, 10 female imagoes, after 24 hours
[2] = active ingredient concentration 3.5 ppm in water, 20 last-instar larvae, after one day

Compound	pest or weed control at 500 ppm (Musca domestics; [1])	pest or weed control at 500 ppm (Blattalla germanica)	pest or weed control at 3.5 ppm (Culex pipiens pallens; [2])	pest or weed control at 500 ppm (Musca domestics; 24 h)	pest or weed control at 3.5 ppm (Culex pipiens pallens)
CC(c1cnn(C(C)(C)C)c1)C(C#N)(C#N)CCC(F)(F)F (centres unmarked) [present compound (27)]	≥ 90%	100%	≥ 95%	–	–
CC(c1cc(C(F)(F)F)on1)C(C#N)(C#N)CCC(F)(F)F (centres unmarked) [present compound (36)]	≥ 90%	100%	≥ 95%	–	–
CC(C)(C)c1nsc(CC(C#N)(C#N)CCC(F)(F)F)n1 [present compound (21)]	≥ 90%	100%	≥ 95%	–	–
CC(C)(C)c1ncc(CC(C#N)(C#N)CCC(F)(F)F)s1 [present compound (17)]	≥ 90%	100%	≥ 95%	–	–
CC(C)(C)c1nnc(CC(C#N)(C#N)CCC(F)(F)F)o1 [present compound (22)]	≥ 90%	–	≥ 95%	–	–
Cn1nc(C(C)(C)C)cc1CC(C#N)(C#N)CCC(F)(F)F [present compound (2)]	≥ 90%	100%	≥ 95%	–	–
C#CCOC(C)(C)c1cc(CC(C#N)(C#N)CCC(F)(F)F)no1 [present compound (67)]	≥ 90%	–	≥ 95%	–	–
CC(C)(C)Cc1nc(CC(C#N)(C#N)CCC(F)(F)F)no1 [present compound (26)]	≥ 90%	100%	≥ 95%	–	–
COc1cc(CC(C#N)(C#N)CCC(F)(F)F)on1 [present compound (68)]	≥ 90%	100%	≥ 95%	–	–
CC(c1cc(C(C)(C)O)on1)C(C#N)(C#N)CCC(F)(F)F (centres unmarked) [present compound (62)]	–	100%	≥ 95%	–	–
CC(C)(O)c1cc(CC(C#N)(C#N)CCC(F)(F)F)no1 [present compound (53)]	–	–	≥ 95%	–	–
C#CCOc1ncc(CC(C#N)(C#N)CCC(F)(F)F)s1 [present compound (19)]	≥ 90%	100%	≥ 95%	–	–
N#CC(C#N)(CCC(F)(F)F)Cc1cc(C(F)(F)C(F)(F)F)on1 [present compound (38)]	≥ 90%	100%	≥ 95%	–	–
N#CC(C#N)(CCC(F)(F)F)Cc1cnc(Cl)s1 [present compound (18)]	≥ 90%	100%	≥ 95%	–	–
CC1(c2nc(CC(C#N)(C#N)CCC(F)(F)F)no2)CC1 [present compound (25)]	≥ 90%	100%	≥ 95%	–	–
CCC(c1cc(C(F)(F)F)on1)C(C#N)(C#N)CCC(F)(F)F (centres unmarked) [present compound (37)]	≥ 90%	100%	≥ 95%	–	–
CC(C)(C)c1nc(CC(C#N)(C#N)CCC(F)(F)F)no1 [present compound (24)]	≥ 90%	100%	≥ 95%	–	–
CC(F)(F)c1cc(CC(C#N)(C#N)CCC(F)(F)F)no1 [present compound (52)]	≥ 90%	100%	≥ 95%	–	–
N#CC(C#N)(CCC(F)(F)F)Cc1cc(C(F)(F)C(F)(F)C(F)(F)F)on1 [present compound (39)]	–	–	–	≥ 90%	≥ 95%
CC(C)C(c1cc(C(C)(C)O)on1)C(C#N)(C#N)CCC(F)(F)F (centres unmarked) [present compound (65)]	–	100%	≥ 95%	–	–

Compound	pest or weed control at 500 ppm (Musca domestics; [1])	pest or weed control at 500 ppm (Blattalla germanica)	pest or weed control at 3.5 ppm (Culex pipiens pallens; [2])	pest or weed control at 500 ppm (Musca domestics; 24 h)	pest or weed control at 3.5 ppm (Culex pipiens pallens)
CC(C)(C)c1cc(CC(C#N)(C#N)CCC(F)(F)F)no1 [present compound (6)]	≥ 90%	100%	≥ 95%	–	–
C#CCn1cc(CC(C#N)(C#N)CCC(F)(F)F)cn1 [present compound (31)]	≥ 90%	–	≥ 95%	–	–
CC(C)(C)n1cc(CC(C#N)(C#N)C2C=CCCC2)cn1 (centres unmarked) [present compound (33)]	–	–	≥ 95%	–	–
CC(C)(F)c1cc(CC(C#N)(C#N)CCC(F)(F)F)no1 [present compound (54)]	≥ 90%	100%	≥ 95%	–	–
N#CC(C#N)(CCC(F)(F)F)Cc1cc(C(F)F)on1 [present compound (47)]	≥ 90%	100%	≥ 95%	–	–
CC(F)c1cc(CC(C#N)(C#N)CCC(F)(F)F)no1 (centres unmarked) [present compound (50)]	≥ 90%	100%	≥ 95%	–	–
CC(C)c1cc(C(C)C(C#N)(C#N)CCC(F)(F)F)no1 (centres unmarked) [present compound (41)]	–	100%	–	–	–
CC(C)(C)[Si](C)(C)OCc1cc(CC(C#N)(C#N)CCC(F)(F)F)no1 [present compound (43), [(5-(t-butyldimethylsilanyloxymethyl)isoxazol-3-yl)methyl](3,3,3-trifluoropropyl)malononitrile]	–	–	–	–	≥ 95%
CC(c1cc(C(C)(C)C)on1)C(C#N)(C#N)CCC(F)(F)F (centres unmarked) [present compound (42)]	≥ 90%	100%	≥ 95%	–	–
N#CC(C#N)(CCC(F)(F)F)Cc1cc(C(F)(F)F)on1 [present compound (35)]	≥ 90%	100%	≥ 95%	–	–
C#CCOc1nc(CC(C#N)(C#N)CCC(F)(F)F)cs1 [present compound (14)]	≥ 90%	–	≥ 95%	–	–
N#CC(C#N)(CCC(F)(F)F)Cc1cscn1 [present compound (10)]	≥ 90%	–	–	–	–
CC[S+]([O-])c1ncc(CC(C#N)(C#N)CCC(F)(F)F)n1C (centres unmarked) [present compound (70)]	–	–	≥ 95%	–	–
CCc1nc(CC(C#N)(C#N)CCC(F)(F)F)no1 [present compound (23)]	≥ 90%	–	≥ 95%	–	–
CC(O[Si](C)(C)C(C)(C)C)c1cc(CC(C#N)(C#N)CCC(F)(F)F)no1 (centres unmarked) [present compound (48)]	–	–	–	–	≥ 95%
CCc1ncc(CC(C#N)(C#N)CCC(F)(F)F)s1 [present compound (16)]	≥ 90%	–	≥ 95%	–	–
CC(C)(C)n1ncc(CC(C#N)(C#N)CCC(F)(F)F)c1-n1cccc1 [present compound (34)]	≥ 90%	–	≥ 95%	–	–
CCC(c1cc(C(C)(C)O)on1)C(C#N)(C#N)CCC(F)(F)F (centres unmarked) [present compound (64)]	–	100%	≥ 95%	–	–
CC(C)(C)c1cc(CC(C#N)(C#N)CCC(F)(F)F)n(CC(F)(F)F)n1 [present compound (3)]	≥ 90%	–	–	–	–
CC(C)(C)c1cc(CC(C#N)(C#N)CCC(F)(F)F)[nH]n1 [present compound (1)]	≥ 90%	–	≥ 95%	–	–
